We go through 1 molecule from article PMC7179439, “Synthesis and Structure-Activity Relationship Studies of Hydrazide-Hydrazones as Inhibitors of Laccase from Trametes versicolor” (Molecules, 2020).

Assay [1] deals with laccase from Pleurotus ostreatus. To be noted: ABTS as substrate ref 86; cited from earlier work.
In assay [2] the test system is laccase from Pleurotus eryngii. As to conditions: cited from earlier work; for Ki: ABTS as substrate, mixed type of inhibition ref 85.
Assay [3] has as its target laccase from Trametes versicolor. Description: Laccase enzyme inhibition assay with syringaldazine as substrate. The format is biochemical. More on the design: key to The type of inhibition: a: competitive; b: uncompetitive; c: not determined; d: non-competitive. As for the experimental part:
The activity of laccase was determined using the procedure described by Leonowicz and Grzywnowicz. Basically, a standard reaction mixture contained the enzyme in McIlvaine buffer (1.5 mL, pH 5.3) in the presence or absence of tested compounds (0.1 mL) and substrate – syringaldazine (0.1 mL). Two water-miscible media were tested as suitable co-solvents for hydrazide-hydrazones which are poorly soluble in water. For that purpose, the stability of laccase (40 nM, McIlvaine buffer, pH 5.3) in methanol and DMSO (6.25% v/v) at 25 °C was investigated (see Supplementary Material). The samples containing the enzyme, with a volumetric buffer–co-solvent ratio of 15:1, were withdrawn in different time intervals for 1500 min. A reaction system contained the 1.6 mL of the collected sample and 0.1 mL of syringaldazine (5.9 µM). Laccase activity was determined spectrophotometrically (UV-VIS 1800, Shimadzu, Reinach, Switzerland) by monitoring the changes in absorbance at 525 nm resulted from oxidation of the substrate syringaldazine with an extinction coefficient ε0 = 65000 M^−1·cm^−1 [99]. Kinetic parameters, Km and k3 were determined for two protein concentrations (20 and 40 nM) and with the nine concentrations of syringaldazine (0.59 to 20 µM), using the Michaelis-Menten model, Equation (1):V = Vmax · CS/(Km + CS), k3 = Vmax/CE(1) where Km [µM], k3 [min^–1] – kinetic constants, Vmax – maximal velocity [µM·min^–1], CS – substrate concentration [µM], CE – enzyme concentration [µM].
The parameters of the function were estimated using the nonlinear least square method in Matlab (The Mathworks, R2019a Version 9.6, academic licence). The method was used simultaneously for datasets obtain for different enzyme concertation. The common minimum of error function was found for all considered datasets resulting in one common estimate of each model parameter. The goodness of fit was assessed using the coefficient of determination (R^2); the sum of squared errors (SSE) and root mean squared error (RMSE). The 25 hydrazide-hydrazones, 4-hydroxybenzoic acid (control, 4-HBA), 4-hydroxybenzohydrazide (4a – 4-HBAH), and sodium azide (control) were tested against laccase in the standard reaction mixture. Prior to the substrate addition, the laccase and tested compound were pre-incubated for 10 min at 25 °C. At least three inhibitor concentrations were used in each experiment. All measurements were performed in triplicate. To determine the type of inhibition Lineweaver–Burk transformation was used applying the following equations for competitive (2), uncompetitive (3) and non-competitive model (4). The parameters of these equations were estimated using the linear least square method. 1/V = Km/Vmax · (1 + Ci/Ki) · 1/CS + 1/Vmax(2) 1/V = Km/Vmax · 1/CS + 1/Vmax · (1 + Ci/Ki)(3) 1/V = Km/Vmax · (1 + Ci/Ki) · 1/CS + 1/Vmax · (1 + Ci/Ki)(4) where Km [µM]—Michaelis-Menten constant, Vmax—maximal velocity [µM·min^–1], Ki—inhibition constant [µM], CS—substrate concentration [µM], Ci—inhibitor concentration [µM].

Read-outs that look alike come from different tables or passages of the source.

Consider `[N-]=[N+]=[N-].[Na+]` [NaN3, sodium azide], for which the Ki is 16.5 µM in assay [1]; 17.6 µM in assay [2] (read-out: Kic); 10.6 µM in assay [2] (read-out: Kiu); 2.72 ± 0.3 µM in assay [3] (25 °C, pH 5.3, syringaldazine substrate, 6.25% v/v organic co-solvent). The figures for the type of inhibition entry in assay [1], in assay [2] (ABTS as substrate ref 85) and in assay [3] (Lineweaver-Burk transformation) were “non-competitive”, “mixed type of inhibition” and “non-competitive”, respectively. The “The type of inhibition” value in assay [3] (Lineweaver-Burk transformation) is reported as “d”.
